{"source": "PubChem BioAssay AID1963980", "about": "(Molecular Pharmacology Branch, DTP, NCI, 2024);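 also: spheroids exposed to agents for seven days before readout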", "data": [{"tested_on": "475296-252-R-J1-PDC spheroid viability", "experiment": "Anticancer human tumor 475296-252-R-J1-PDC patient-derived rectal carcinoma cell line growth inhibition [PI3K]", "conditions": "curve of first compound; second compound 0.0316 µM; spheroids with HUVEC and MSC", "how_it_was_run": "(§1)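 Viability of mixed-cell spheroids was determined after exposure to pairwise combinations, one partner being inavolisib, alpelisib, duvelisib or copanlisib. Highest tested concentration matched clinical Cmax where known and 10 microM where not, descending in half-log steps.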", "units": {"IC50": "µM"}, "values": [{"smiles": "C#Cc1c(F)ccc2cc(O)cc(-c3ncc4c(N5CC6CCC(C5)N6)nc(OCC56CCCN5CC(F)C6)nc4c3F)c12", "note": "(stereo unspecified) + CC(Nc1ncnc2nc[nH]c12)c1cc2cccc(Cl)c2c(=O)n1-c1ccccc1", "IC50": "> 10"}, {"smiles": "C=CC(=O)N1CCN(c2nc(=O)n(-c3c(C)ccnc3C(C)C)c3nc(-c4c(O)cccc4F)c(F)cc23)C(C)C1", "note": "(stereo unspecified) + CC(Nc1ncnc2nc[nH]c12)c1cc2cccc(Cl)c2c(=O)n1-c1ccccc1", "IC50": "> 10"}, {"smiles": "CC(Cn1ccc(-c2ccc(C#N)c(Cl)c2)n1)NC(=O)c1cc(C(C)O)[nH]n1", "note": "(stereo unspecified) + CC(Nc1ncnc2nc[nH]c12)c1cc2cccc(Cl)c2c(=O)n1-c1ccccc1", "IC50": "> 10"}, {"smiles": "Cn1ncc(Cl)c1-c1cc(C(=O)NC(CN)Cc2cccc(F)c2)sc1Cl", "note": "(stereo unspecified) + CC(Nc1ncnc2nc[nH]c12)c1cc2cccc(Cl)c2c(=O)n1-c1ccccc1", "IC50": "> 10"}, {"smiles": "Cn1nccc1Nc1nccc(-c2ccn(C(CO)c3ccc(Cl)c(F)c3)c(=O)c2)n1", "note": "(stereo unspecified) + CC(Nc1ncnc2nc[nH]c12)c1cc2cccc(Cl)c2c(=O)n1-c1ccccc1", "IC50": "> 10"}]}, {"tested_on": "475296-252-R-J1-PDC spheroid viability", "experiment": "Anticancer human tumor 475296-252-R-J1-PDC cell line growth inhibition [PI3K]", "conditions": "curve of first compound; second compound 0.1 µM; spheroids with HUVEC and MSC", "how_it_was_run": "as §1", "units": {"IC50": "µM"}, "values": [{"smiles": "C#Cc1c(F)ccc2cc(O)cc(-c3ncc4c(N5CC6CCC(C5)N6)nc(OCC56CCCN5CC(F)C6)nc4c3F)c12", "note": "(stereo unspecified) + CC(Nc1ncnc2nc[nH]c12)c1cc2cccc(Cl)c2c(=O)n1-c1ccccc1", "IC50": "> 10"}, {"smiles": "C=CC(=O)N1CCN(c2nc(=O)n(-c3c(C)ccnc3C(C)C)c3nc(-c4c(O)cccc4F)c(F)cc23)C(C)C1", "note": "(stereo unspecified) + CC(Nc1ncnc2nc[nH]c12)c1cc2cccc(Cl)c2c(=O)n1-c1ccccc1", "IC50": "> 10"}, {"smiles": "CC(Cn1ccc(-c2ccc(C#N)c(Cl)c2)n1)NC(=O)c1cc(C(C)O)[nH]n1", "note": "(stereo unspecified) + CC(Nc1ncnc2nc[nH]c12)c1cc2cccc(Cl)c2c(=O)n1-c1ccccc1", "IC50": "> 10"}, {"smiles": "Cn1ncc(Cl)c1-c1cc(C(=O)NC(CN)Cc2cccc(F)c2)sc1Cl", "note": "(stereo unspecified) + CC(Nc1ncnc2nc[nH]c12)c1cc2cccc(Cl)c2c(=O)n1-c1ccccc1", "IC50": "> 10"}, {"smiles": "Cn1nccc1Nc1nccc(-c2ccn(C(CO)c3ccc(Cl)c(F)c3)c(=O)c2)n1", "note": "(stereo unspecified) + CC(Nc1ncnc2nc[nH]c12)c1cc2cccc(Cl)c2c(=O)n1-c1ccccc1", "IC50": "> 10"}]}, {"tested_on": "475296-252-R-J1-PDC spheroid viability", "experiment": "Anticancer human tumor 475296-252-R-J1-PDC cell line growth inhibition [PI3K]", "conditions": "curve of first compound; second compound 0.316 µM; spheroids with HUVEC and MSC", "how_it_was_run": "as §1", "units": {"IC50": "µM"}, "values": [{"smiles": "C#Cc1c(F)ccc2cc(O)cc(-c3ncc4c(N5CC6CCC(C5)N6)nc(OCC56CCCN5CC(F)C6)nc4c3F)c12", "note": "(stereo unspecified) + CC(Nc1ncnc2nc[nH]c12)c1cc2cccc(Cl)c2c(=O)n1-c1ccccc1", "IC50": "> 10"}, {"smiles": "C=CC(=O)N1CCN(c2nc(=O)n(-c3c(C)ccnc3C(C)C)c3nc(-c4c(O)cccc4F)c(F)cc23)C(C)C1", "note": "(stereo unspecified) + CC(Nc1ncnc2nc[nH]c12)c1cc2cccc(Cl)c2c(=O)n1-c1ccccc1", "IC50": "> 10"}, {"smiles": "CC(Cn1ccc(-c2ccc(C#N)c(Cl)c2)n1)NC(=O)c1cc(C(C)O)[nH]n1", "note": "(stereo unspecified) + CC(Nc1ncnc2nc[nH]c12)c1cc2cccc(Cl)c2c(=O)n1-c1ccccc1", "IC50": "> 10"}, {"smiles": "Cn1ncc(Cl)c1-c1cc(C(=O)NC(CN)Cc2cccc(F)c2)sc1Cl", "note": "(stereo unspecified) + CC(Nc1ncnc2nc[nH]c12)c1cc2cccc(Cl)c2c(=O)n1-c1ccccc1", "IC50": "> 10"}, {"smiles": "Cn1nccc1Nc1nccc(-c2ccn(C(CO)c3ccc(Cl)c(F)c3)c(=O)c2)n1", "note": "(stereo unspecified) + CC(Nc1ncnc2nc[nH]c12)c1cc2cccc(Cl)c2c(=O)n1-c1ccccc1", "IC50": "> 10"}]}, {"tested_on": "475296-252-R-J1-PDC spheroid viability", "experiment": "Anticancer human tumor 475296-252-R-J1-PDC cell line growth inhibition [PI3K]", "conditions": "curve of first compound; second compound 1 µM; spheroids with HUVEC and MSC", "how_it_was_run": "as §1", "units": {"IC50": "µM"}, "values": [{"smiles": "C#Cc1c(F)ccc2cc(O)cc(-c3ncc4c(N5CC6CCC(C5)N6)nc(OCC56CCCN5CC(F)C6)nc4c3F)c12", "note": "(stereo unspecified) + CC(Nc1ncnc2nc[nH]c12)c1cc2cccc(Cl)c2c(=O)n1-c1ccccc1", "IC50": 6.37}, {"smiles": "C=CC(=O)N1CCN(c2nc(=O)n(-c3c(C)ccnc3C(C)C)c3nc(-c4c(O)cccc4F)c(F)cc23)C(C)C1", "note": "(stereo unspecified) + CC(Nc1ncnc2nc[nH]c12)c1cc2cccc(Cl)c2c(=O)n1-c1ccccc1", "IC50": "> 10"}, {"smiles": "CC(Cn1ccc(-c2ccc(C#N)c(Cl)c2)n1)NC(=O)c1cc(C(C)O)[nH]n1", "note": "(stereo unspecified) + CC(Nc1ncnc2nc[nH]c12)c1cc2cccc(Cl)c2c(=O)n1-c1ccccc1", "IC50": "> 10"}, {"smiles": "Cn1ncc(Cl)c1-c1cc(C(=O)NC(CN)Cc2cccc(F)c2)sc1Cl", "note": "(stereo unspecified) + CC(Nc1ncnc2nc[nH]c12)c1cc2cccc(Cl)c2c(=O)n1-c1ccccc1", "IC50": "> 10"}, {"smiles": "Cn1nccc1Nc1nccc(-c2ccn(C(CO)c3ccc(Cl)c(F)c3)c(=O)c2)n1", "note": "(stereo unspecified) + CC(Nc1ncnc2nc[nH]c12)c1cc2cccc(Cl)c2c(=O)n1-c1ccccc1", "IC50": "> 10"}]}, {"tested_on": "475296-252-R-J1-PDC spheroid viability", "experiment": "Anticancer human tumor 475296-252-R-J1-PDC cell line growth inhibition [PI3K]", "conditions": "curve of first compound; second compound 3.16 µM; spheroids with HUVEC and MSC", "how_it_was_run": "as §1", "units": {"IC50": "µM"}, "values": [{"smiles": "C#Cc1c(F)ccc2cc(O)cc(-c3ncc4c(N5CC6CCC(C5)N6)nc(OCC56CCCN5CC(F)C6)nc4c3F)c12", "note": "(stereo unspecified) + CC(Nc1ncnc2nc[nH]c12)c1cc2cccc(Cl)c2c(=O)n1-c1ccccc1", "IC50": 3.95}, {"smiles": "C=CC(=O)N1CCN(c2nc(=O)n(-c3c(C)ccnc3C(C)C)c3nc(-c4c(O)cccc4F)c(F)cc23)C(C)C1", "note": "(stereo unspecified) + CC(Nc1ncnc2nc[nH]c12)c1cc2cccc(Cl)c2c(=O)n1-c1ccccc1", "IC50": "> 10"}, {"smiles": "CC(Cn1ccc(-c2ccc(C#N)c(Cl)c2)n1)NC(=O)c1cc(C(C)O)[nH]n1", "note": "(stereo unspecified) + CC(Nc1ncnc2nc[nH]c12)c1cc2cccc(Cl)c2c(=O)n1-c1ccccc1", "IC50": "> 10"}, {"smiles": "Cn1ncc(Cl)c1-c1cc(C(=O)NC(CN)Cc2cccc(F)c2)sc1Cl", "note": "(stereo unspecified) + CC(Nc1ncnc2nc[nH]c12)c1cc2cccc(Cl)c2c(=O)n1-c1ccccc1", "IC50": "> 10"}, {"smiles": "Cn1nccc1Nc1nccc(-c2ccn(C(CO)c3ccc(Cl)c(F)c3)c(=O)c2)n1", "note": "(stereo unspecified) + CC(Nc1ncnc2nc[nH]c12)c1cc2cccc(Cl)c2c(=O)n1-c1ccccc1", "IC50": "> 10"}]}, {"tested_on": "475296-252-R-J1-PDC spheroid viability", "experiment": "Anticancer human tumor 475296-252-R-J1-PDC cell line growth inhibition [PI3K]", "conditions": "curve of first compound; second compound 10 µM; spheroids with HUVEC and MSC", "how_it_was_run": "as §1", "units": {"IC50": "µM"}, "values": [{"smiles": "C#Cc1c(F)ccc2cc(O)cc(-c3ncc4c(N5CC6CCC(C5)N6)nc(OCC56CCCN5CC(F)C6)nc4c3F)c12", "note": "(stereo unspecified) + CC(Nc1ncnc2nc[nH]c12)c1cc2cccc(Cl)c2c(=O)n1-c1ccccc1", "IC50": 1.76}]}]}
